System: Jurkat cells
Assay: Adaptation to G2 cell cycle arrest (G1 increment) in X-ray pre-arrested Jurkat cells, flow cytometry
Assay type: cell-based, human
Settings: Table 2, concentration causing half-maximal increase of % cells in G1 phase (G1 increment), Jurkat pre-arrested by 10 Gy X-ray, 24 hours with compound
Experimental: Phenotype-based screening was used to measure the ability of compounds of the invention to cause adaptation to G2 cell cycle arrest in G2-arrested cells. Adaptation to G2 cell cycle arrest and re-entry into the cell cycle can result in death of the previously G2-arrested cell, or suppression (inhibition) of further proliferation of the previously G2-arrested cell. In a non-limiting embodiment, the ability to cause adaptation to G2 cell cycle arrest was measured by contacting cells in which G2 arrest had been induced by irradiation (e.g., gamma (γ) radiation or X-ray radiation), with compounds of the invention at various concentrations and, for each compound at each concentration, determining the percentage of cells that escaped G2 arrest and re-entered the cell cycle, by determining the percentage of cells in G1 phase. The IC50 value for each compound was calculated as the dosage (usually in μM) that caused half-maximal increase of the percentage of cells in G1 phase (the G1 increment) measured for that compound. Certain invention compounds were initially identified by phenotype-based screening of small molecule libraries for activity against G2-arrested cells as described above.
Jurkat cells (a human T cell lymphoma-derived cell line) were arrested at the G2 phase by X-ray irradiation at 10 Gy, and cultured for 24 hours in 10% fetal calf serum (FCS)/RPMI1640 at 37° C. with 5% CO2/air. (FCS was from Equitech-Bio, Kerrville, Tex., and RPMI1640 was from Sigma-Aldrich, St. Louis, Mo.) Test compounds were added to the medium at the indicated doses, and the cells were cultured under the conditions described above, for an additional 24 hours before harvesting.
Harvested cells were stained with Krishan's buffer (0.1% sodium citrate, 50 μg/ml propidium iodide, 20 μg/ml RNase A, 0.5% Nonidet P-40) and analyzed by flow cytometry (BD Biosciences, Franklin Lakes, N.J.) to identify the cell stage of each cell in the sample. Cells in G1 phase were identified by having […] (2N) DNA content.
The IC50 value for each compound was calculated as the dosage showing half maximal activity to induce the increase of the percentage of cells in G1 phase (the G1 increment). IC50 values were used to measure the activity of compounds and to determine structure-activity relationships.
Pre-arrested Jurkat cells were prepared as described in Example 1. Briefly, Jurkat cells were subjected to X-ray irradiation at a dose of 10 Gy, and cultured for 24 hours in 10% fetal calf serum (FCS)/RPMI1640 at 37° C. with 5% CO2/air, after which time cells were exposed to various concentrations of test compounds, and cultured under the conditions described above for an additional 24 hours before harvesting. Harvested cells were stained with Krishan's buffer (0.1% sodium citrate, 50 μg/ml propidium iodide, 20 μg/ml RNase A, 0.5% Nonidet P-40) and analyzed by flow cytometry (BD Biosciences, Franklin Lakes, N.J.) to identify the cell stage of each cell in the sample. Cells in G1 phase were identified by having […] (2N) DNA content.
The IC50 value for each compound was calculated as the dosage (concentration in μM) that caused half-maximal increase of the percentage of cells in G1 phase (the G1 increment) measured for that test compound. Table 1 below presents the structure, mass, 1H NMR values, and […] values for representative compounds.
The IC50 value for each compound was calculated as the dosage (concentration in μM) that caused half-maximal increase of the percentage of cells in G1 phase (the G1 increment) measured for that test compound. Table 2 below presents structures, IUPAC name, molecular formula, ID number (“SCID”), mass, 1H NMR values, and IC50 values for representative compounds. Table 3 presents structures, IUPAC name, molecular formula, ID number (“SCID”), mass, 1H NMR values, and IC50 values for further representative compounds.

## CC1=C(C)C(=O)N(Nc2ccc(C(F)(F)F)c(Br)n2)C1=O [Compound S00994, 1-{[6-bromo-5-(trifluoromethyl)(2-pyridyl)]amino}-3,4-dimethylazoline-2,5-dione]
Homo sapiens, Jurkat, 24 h
  IC50: 200 nM

## CC1=C(C)C(=O)N(Nc2cc(Cl)c3cccc(Cl)c3n2)C1=O [Compound S01005, 1-[(4,8-dichloro(2-quinolyl))amino]-3,4-dimethylazoline-2,5-dione]
Homo sapiens, Jurkat, 24 h
  IC50: 200 nM

## CC1=C(C)C(=O)N(N(C)c2ccc(C(F)(F)F)c(Br)n2)C1=O [Compound S01007, 1-{[6-bromo-5-(trifluoromethyl)(2-pyridyl)]methylamino}-3,4-dimethylazoline-2,5-dione]
Homo sapiens, Jurkat, 24 h
  IC50: 120 nM

## CC1=C(C)C(=O)N(Nc2cc(CO)c3ccc(Br)cc3n2)C1=O [Compound S01037, 1-{[7-bromo-4-(hydroxymethyl)(2-quinolyl)]amino}-3,4-dimethylazoline-2,5-dione]
Homo sapiens, Jurkat, 24 h
  IC50: 625 nM

## CC(=O)OCc1cc(NN2C(=O)C(C)=C(C)C2=O)nc2cc(Br)ccc12 [Compound S01047, {2-[(3,4-dimethyl-2,5-dioxoazolinyl)amino]-7-bromo-4-quinolyl}methylacetate]
Homo sapiens, Jurkat, 24 h
  IC50: 625 nM

## CC1=C(C)C(=O)N(Nc2cc(Cl)c3ccc(Cl)c(Cl)c3n2)C1=O [Compound S01078, 3,4-dimethyl-1-[(4,7,8-trichloro(2-quinolyl))amino]azoline-2,5-dione]
Homo sapiens, Jurkat, 24 h
  IC50: 78 nM

## CC1=C(C)C(=O)N(Nc2nc(Cl)cc3ccccc23)C1=O [Compound S01098, 1-[(3-chloroisoquinolyl)amino]-3,4-dimethylazoline-2,5-dione]
Homo sapiens, Jurkat, 24 h
  IC50: 450 nM

## COc1ccc(-c2cc(NN3C(=O)C(C)=C(C)C3=O)nc3c(Cl)cccc23)cc1 [Compound S01191, 1-{[8-chloro-4-(4-methoxyphenyl)(2-quinolyl)]amino}-3,4-dimethylazoline-2,5-dione]
Homo sapiens, Jurkat, 24 h
  IC50: 625 nM

## CC1=C(C)C(=O)N(Nc2cc(Cl)c3ccc4ccccc4c3n2)C1=O [Compound S01207, 1-[(4-chlorobenzo[h]quinolin-2-yl)amino]-3,4-dimethylazoline-2,5-dione]
Homo sapiens, Jurkat, 24 h
  IC50: 625 nM

## CC1=C(C)C(=O)N(Nc2cc(Cl)c3cccc(Br)c3n2)C1=O [Compound S01247, 1-[(8-bromo-4-chloro(2-quinolyl))amino]-3,4-dimethylazoline-2,5-dione]
Homo sapiens, Jurkat, 24 h
  IC50: 78 nM

## CC1=C(C)C(=O)N(Nc2ccc(C(F)(F)F)c(-c3ccccc3)n2)C1=O [Compound S01266, 3,4-dimethyl-1-{[6-phenyl-5-(trifluoromethyl)(2-pyridyl)]amino}azoline-2,5-dione]
Homo sapiens, Jurkat, 24 h
  IC50: 200 nM

## CC1=C(C)C(=O)N(Nc2cc(CN3CCN(Cc4ccccc4)CC3)c3ccc(Br)cc3n2)C1=O [Compound S01268, 1-[(7-bromo-4-{[4-benzylpiperazinyl]methyl}(2-quinolyl))amino]-3,4-dimethylazoline-2,5-dione]
Homo sapiens, Jurkat, 24 h
  IC50: 625 nM

## CC1=C(C)C(=O)N(Nc2cc(Cl)c3ccc(Br)cc3n2)C1=O [Compound S01311, 1-[(7-bromo-4-chloro(2-quinolyl))amino]-3,4-dimethylazoline-2,5-dione]
Homo sapiens, Jurkat, 24 h
  IC50: 300 nM

## CC1=C(C)C(=O)N(Nc2ccc(C(F)(F)F)c(-c3ccc(F)c(Cl)c3)n2)C1=O [Compound S01313, 1-{[6-(3-chloro-4-fluorophenyl)-5-(trifluoromethyl)(2-pyridyl)]amino}-3,4-dimethylazoline-2,5-dione]
Homo sapiens, Jurkat, 24 h
  IC50: 300 nM

## CC1=C(C)C(=O)N(Nc2ccc(C(F)(F)F)c(-c3ccc(Cl)cc3)n2)C1=O [Compound S01371, 1-{[6-(4-chlorophenyl)-5-(trifluoromethyl)(2-pyridyl)]amino}-3,4-dimethylazoline-2,5-dione]
Homo sapiens, Jurkat, 24 h
  IC50: 625 nM

## CC1=C(C)C(=O)N(Nc2ccc(C(F)(F)F)c(-c3ccc(C)cc3)n2)C1=O [Compound S01393, 3,4-dimethyl-1-{[6-(4-methylphenyl)-5-(trifluoromethyl)(2-pyridyl)]amino}azoline-2,5-dione]
Homo sapiens, Jurkat, 24 h
  IC50: 625 nM

## CC1=C(C)C(=O)N(Nc2cc(C(F)(F)F)c3ccc(Cl)c(Cl)c3n2)C1=O [Compound S01455, 1-{[7,8-dichloro-4-(trifluoromethyl)(2-quinolyl)]amino}-3,4-dimethylazoline-2,5-dione]
Homo sapiens, Jurkat, 24 h
  IC50: 156 nM

## CC1=C(C)C(=O)N(Nc2ccc(C(F)(F)F)c(CC(C)C)n2)C1=O [Compound S01457, 3,4-dimethyl-1-{[6-(2-methylpropyl)-5-(trifluoromethyl)(2-pyridyl)]amino}azoline-2,5-dione]
Homo sapiens, Jurkat, 24 h
  IC50: 300 nM

## CC1=C(CO)C(=O)N(Nc2ccc(C(F)(F)F)c(Cl)n2)C1=O [Compound S01470, 1-{[6-chloro-5-(trifluoromethyl)(2-pyridyl)]amino}-3-(hydroxymethyl)-4-methylazoline-2,5-dione]
Homo sapiens, Jurkat, 24 h
  IC50: 200 nM

## CC(=O)N(c1ccc(C(F)(F)F)c(Cl)n1)N1C(=O)C(C)=C(C)C1=O [Compound S01473, N-(3,4-dimethyl-2,5-dioxoazolinyl)-N-[6-chloro-5-(trifluoromethyl) (2-pyridyl)]acetamide]
Homo sapiens, Jurkat, 24 h
  IC50: 200 nM

## CC1=C(C)C(=O)N(Nc2ccc(C(F)(F)F)c(-c3cccc(Cl)c3)n2)C1=O [Compound S01474, 1-{[6-(3-chlorophenyl)-5-(trifluoromethyl)(2-pyridyl)]amino}-3,4-dimethylazoline-2,5-dione]
Homo sapiens, Jurkat, 24 h
  IC50: 625 nM

## CC1=C(C)C(=O)N(Nc2ccc(C(F)(F)F)c(C#N)n2)C1=O [Compound S01475, 6-[(3,4-dimethyl-2,5-dioxoazolinyl)amino]-3-(trifluoromethyl)pyridine-2-carbonitrile]
Homo sapiens, Jurkat, 24 h
  IC50: 500 nM

## CCC1=C(C)C(=O)N(Nc2ccc(C(F)(F)F)c(Cl)n2)C1=O [Compound S01553, 1-{[6-chloro-5-(trifluoromethyl)(2-pyridyl)]amino}-3-ethyl-4-methylazoline-2,5-dione]
Homo sapiens, Jurkat, 24 h
  IC50: 450 nM

## CC1=C(CCC(C)C)C(=O)N(Nc2ccc(C(F)(F)F)c(Cl)n2)C1=O [Compound S01554, 1-{[6-chloro-5-(trifluoromethyl)(2-pyridyl)]amino}-4-methyl-3-(3-methylbutyl)azoline-2,5-dione]
Homo sapiens, Jurkat, 24 h
  IC50: 120 nM

## CC1=C(C)C(=O)N(Nc2cc(CN3CCN(C(=O)OC(C)(C)C)CC3)c3ccc(Br)cc3n2)C1=O [Compound S01589, tert-butyl 4-({2-[(3,4-dimethyl-2,5-dioxoazolinyl)amino]-7-bromo-4-quinolyl}methyl)piperazinecarboxylate]
  IC50: 78 nM

## COCC1=C(C)C(=O)N(Nc2ccc(C(F)(F)F)c(Cl)n2)C1=O [Compound S01599, 1-{[6-chloro-5-(trifluoromethyl)(2-pyridyl)]amino}-3-(methoxymethyl)-4-methylazoline-2,5-dione]
Homo sapiens, Jurkat, 24 h
  IC50: 120 nM

## COCC1=C(C)C(=O)N(N(C)c2ccc(C(F)(F)F)c(Cl)n2)C1=O [Compound S01600, 1-{[6-chloro-5-(trifluoromethyl)(2-pyridyl)]methylamino}-3-(methoxymethyl)-4-methylazoline-2,5-dione]
Homo sapiens, Jurkat, 24 h
  IC50: 625 nM

## COC(=O)CCC1=C(C)C(=O)N(Nc2ccc(C(F)(F)F)c(Cl)n2)C1=O [Compound S01648, Methyl 3-(1-{[6-chloro-5-(trifluoromethyl)(2-pyridyl)]amino}-4-methyl-2,5-dioxoazolin-3-yl)propanoate]
Homo sapiens, Jurkat, 24 h
  IC50: 78 nM

## CC1=C(C)C(=O)N(Nc2cc(CN3CCN(C(=O)OCc4ccccc4)CC3)c3ccc(Br)cc3n2)C1=O [Compound S01683, Phenylmethyl4-({2-[(3,4-dimethyl-2,5-dioxoazolinyl)amino]-7-bromo-4-quinolyl}methyl)piperazinecarboxylate]
Homo sapiens, Jurkat, 24 h
  IC50: 625 nM

## CC1=C(C)C(=O)N(Nc2cc(Cl)nc(-c3ccccc3)c2C(F)(F)F)C1=O [Compound S01688, 1-{[6-chloro-2-phenyl-3-(trifluoromethyl)(4-pyridyl)]amino}-3,4-dimethylazoline-2,5-dione]
Homo sapiens, Jurkat, 24 h
  IC50: 625 nM
